Experimental data reported in patent US5354865A, “Phenylmethyl derivatives having lipoxygenase inhibitory activity” (Abbott Laboratories, priority 1992, dated 1994).

Molecular target: T1, 5-Lipoxygenase (Homo sapiens, UniProt P09917)
T1 construct: from tissue; host or cells: human heparinized whole blood (endogenous enzyme of its blood cells)
T1 sequence (P09917 1-674): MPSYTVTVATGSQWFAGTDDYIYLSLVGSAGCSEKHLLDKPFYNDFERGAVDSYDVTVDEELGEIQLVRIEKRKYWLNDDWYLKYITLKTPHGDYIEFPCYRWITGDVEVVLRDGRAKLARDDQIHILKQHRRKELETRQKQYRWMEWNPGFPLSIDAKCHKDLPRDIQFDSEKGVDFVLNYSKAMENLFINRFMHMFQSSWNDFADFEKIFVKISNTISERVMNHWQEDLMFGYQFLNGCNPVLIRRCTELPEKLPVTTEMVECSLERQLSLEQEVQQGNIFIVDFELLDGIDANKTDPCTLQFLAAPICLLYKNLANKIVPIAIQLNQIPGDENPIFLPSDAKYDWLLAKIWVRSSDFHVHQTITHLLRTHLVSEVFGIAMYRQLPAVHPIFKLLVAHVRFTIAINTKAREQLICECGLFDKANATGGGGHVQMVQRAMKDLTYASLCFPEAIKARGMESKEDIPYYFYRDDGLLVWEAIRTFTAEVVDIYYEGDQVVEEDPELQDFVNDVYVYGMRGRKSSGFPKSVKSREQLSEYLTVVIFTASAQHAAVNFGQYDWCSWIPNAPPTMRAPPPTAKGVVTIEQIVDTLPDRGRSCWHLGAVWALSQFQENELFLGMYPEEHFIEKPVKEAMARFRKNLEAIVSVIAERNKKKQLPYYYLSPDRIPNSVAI
Assay: Inhibition of leukotriene biosynthesis: calcium ionophore A23187-induced LTB4 biosynthesis in human whole blood (RIA)
Type: cell-based
Conditions: @ 0.20 μM; human whole blood, A23187; read-out: Inhibition of stimulated LTB4 formation in human whole blood
Protocol: Inhibition of leukotriene biosynthesis was evaluated in an assay, involving calcium ionophore-induced LTB4 biosynthesis expressed human whole blood. Human heparinized whole blood was preincubated with test compounds or vehicle for 15 min at 37° C. followed by calcium ionophore A23187 challenge (final concentration of 8.3 μM) and the reaction terminated after 30 min by adding two volumes of methanol containing prostaglandin B2 as an internal recovery standard. The methanol extract was analyzed for LTB4 using a commercially available radioimmunoassay.

SMILES | inhibition at 0.2 µM
CON=C(c1cc(F)cc(OCc2ccc3c(ccc(=O)n3C)c2)c1)C1CCOCC1 [Example 15, E- and Z-O-methyl-[(3-((1,2-dihydro-1-methyl-2-oxoquinolin-6-yl)methoxy)-5-fluorophen-1-yl)oximinomethyl]tetrahydropyran] | 99.6%

Same assay, conditions: @ 0.39 μM; human whole blood, A23187; read-out: Inhibition of stimulated LTB4 formation in human whole blood

SMILES | inhibition at 0.39 µM
CON=C(c1cccc(OCc2ccc3ccccc3c2)c1)C1CCOCC1 [Example 7, E- and Z-O-methyl-4-[(3-(naphth-2-yl)methoxyphen-1-yl)oximinomethyl]tetrahydropyran] | 68%
Cn1c(=O)ccc2cc(COc3cccc(C(=NO)C4CCOCC4)c3)ccc21 [Example 11, E- and Z-4-[(3-((1,2-dihydro-1-methyl-2-oxoquinolin-6-yl)methoxy)phen-1-yl)oximinomethyl]tetrahydropyran] | 73%

Same assay, conditions: @ 0.78 μM; human whole blood, A23187; read-out: Inhibition of stimulated LTB4 formation in human whole blood

SMILES | inhibition at 0.78 µM
CON=C(c1cccc(OCc2ccc3c(ccc(=O)n3C)c2)c1)C1CCOCC1 [Example 12, E- and Z-O-Methyl-4-[(3-((1,2-dihydro-1-methyl-2-oxoquinolin-6-yl)methoxy)phen-1-yl)oximinomethyl]tetrahydropyran] | 99%
Cn1c(=O)ccc2cc(COc3cc(F)cc(C(=NO)C4CCOCC4)c3)ccc21 [Example 16, E- and Z-4-[(3-((1,2-dihydro-1-methyl-2-oxoquinolin-6-yl)methoxy)-5-fluorophen-1-yl) oximinomethyl]tetrahydropyran] | 98%

Same assay, conditions: human heparinized whole blood, 15 min preincubation at 37° C., A23187 8.3 μM, 30 min; LTB4 by RIA; read-out: In vitro inhibitory potency against 5-lipoxygenase from stimulated LTB4 formation in human whole blood, IC50

SMILES | IC50
OC(c1cccc(OCc2ccc3ccccc3c2)c1)C1CCOCC1 (centres unmarked) [Example 1, 4-[(3-(naphth-2-yl)methoxyphen-1-yl)hydroxymethyl]tetrahydropyran] | 3.5 µM
COC(c1cccc(OCc2ccc3ccccc3c2)c1)C1CCOCC1 (centres unmarked) [Example 2, 4-[(3-(naphth-2-yl)methoxyphen-1-yl)methoxymethyl]tetrahydropyran] | 0.73 µM
NN=C(c1cccc(OCc2ccc3ccccc3c2)c1)C1CCOCC1 [Example 6] | 2.4 µM
COC(c1cccc(OCc2ccc3c(ccc(=O)n3C)c2)c1)C1CCOCC1 (centres unmarked) [Example 9, 4-[(3-(1,2-dihydro-1-methyl-2-oxoquinolin-6-yl)methyloxyphen-1-yl)methoxymethyl]tetrahydropyran] | 0.71 µM
COCOC(c1cccc(OCc2ccc3c(ccc(=O)n3C)c2)c1)C1CCOCC1 (centres unmarked) [Example 10, 4-[(3-((1,2-dihydro-1-methyl-2-oxoquinolin-6-yl)methoxy)phen-1-yl)methoxymethoxymethyl]tetrahydropyran] | 0.94 µM
CCON=C(c1cccc(OCc2ccc3c(ccc(=O)n3C)c2)c1)C1CCOCC1 [Example 13, E- and Z-O-Ethyl-4-[(3-((1,2-dihydro-1-methyl-2-oxoquinolin-6-yl)methoxy)phen-1-yl)oximinomethyl]tetrahydropyran] | 0.83 µM
COC1(Cc2cccc(OCc3ccc4ccccc4c3)c2)CCOCC1 [Example 14, 4-methoxy-4-[(3-((naphth-2-yl)methoxy)phen-1-yl)methyl]tetrahydropyran] | 2 µM
CON=C(c1cc(F)cc(OCc2ccc3ccccc3c2)c1)C1(C)COC1 [Example 17, E- and Z-O-methyl-3-methyl-3-[(3-((naphth-2-yl)methoxy)-5-fluorophen-1-yl)oximinomethyl]oxetane] | 2.9 µM
CC1(C(=NO)c2cc(F)cc(OCc3ccc4ccccc4c3)c2)COC1 [Example 18, E- and Z-3-methyl-3-[(3-((naphth-2-yl)methoxy)-5-fluorophen-1-yl)oximinomethyl]oxetane] | 5.2 µM
